pIC50, pKi: −log10 of the molar value. Calls of active or inactive are those of the source. The calls are words filed in the database; no cut-off is given here.
System: not listed separately
Test: Metal chelating activity assessed as compound-Cu2+ complex formation at 25 uM by UV-vis spectrophotometric analysis
Format: functional
Conditions: not given

SMILES	Activity
Cc1cc(=O)oc2cc(OCCN3CCN(CC(=O)Nc4c5c(nc6ccccc46)CCCC5)CC3)ccc12	Active

System: not listed separately
Test: Neurotoxicity in human SH-SY5Y cells at 50 uM after 24 hrs by MTT assay relative to control
Format: toxicity, cell-based
Conditions: not given

SMILES	Activity [%]
Cc1cc(=O)oc2cc(OCCN3CCN(CC(=O)Nc4c5c(nc6ccccc46)CCCC5)CC3)ccc12	91.5

Target: Cholinesterase (Equus caballus, UniProt P81908)
Sequence (P81908 whole entry): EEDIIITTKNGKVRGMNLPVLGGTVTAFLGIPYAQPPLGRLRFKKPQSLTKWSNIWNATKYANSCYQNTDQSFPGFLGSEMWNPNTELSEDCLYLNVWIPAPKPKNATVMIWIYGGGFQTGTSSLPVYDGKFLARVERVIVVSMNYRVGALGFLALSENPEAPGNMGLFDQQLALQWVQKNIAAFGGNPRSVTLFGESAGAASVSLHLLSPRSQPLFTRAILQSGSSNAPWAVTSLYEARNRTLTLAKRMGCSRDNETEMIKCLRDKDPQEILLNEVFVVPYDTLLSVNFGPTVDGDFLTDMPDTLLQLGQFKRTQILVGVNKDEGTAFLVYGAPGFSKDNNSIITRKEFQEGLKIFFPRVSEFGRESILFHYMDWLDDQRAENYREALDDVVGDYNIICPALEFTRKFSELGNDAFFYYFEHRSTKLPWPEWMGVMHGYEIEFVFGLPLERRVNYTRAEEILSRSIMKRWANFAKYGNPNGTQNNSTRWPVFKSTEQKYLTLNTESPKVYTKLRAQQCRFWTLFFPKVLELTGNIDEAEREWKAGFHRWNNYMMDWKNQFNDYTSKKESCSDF
Conditions: not given

SMILES	pIC50
Cc1cc(=O)oc2cc(O)ccc12 [HYMECROMONE]	< 3.30
COc1cc(=O)oc2cc(OCCCN3CCN(CC(=O)Nc4c5c(nc6ccccc46)CCCC5)CC3)ccc12	5.74
Cc1cc(=O)oc2cc(OCCCN3CCN(CC(=O)Nc4c5c(nc6ccccc46)CCCC5)CC3)ccc12	6.20
O=C(CN1CCN(CCCCCCOc2ccc3ccc(=O)oc3c2)CC1)Nc1c2c(nc3ccccc13)CCCC2	6.68
O=C(CN1CCNCC1)Nc1c2c(nc3ccccc13)CCCC2	4.66
O=C(CN1CCN(CCOc2ccc3ccc(=O)oc3c2)CC1)Nc1c2c(nc3ccccc13)CCCC2	6.31
Cc1cc(=O)oc2cc(OCCCCCCN3CCN(CC(=O)Nc4c5c(nc6ccccc46)CCCC5)CC3)ccc12	7.00
COc1cc(=O)oc2cc(OCCN3CCN(CC(=O)Nc4c5c(nc6ccccc46)CCCC5)CC3)ccc12	5.29
Cc1cc(=O)oc2cc(OCCCCN3CCN(CC(=O)Nc4c5c(nc6ccccc46)CCCC5)CC3)ccc12	6.83
O=C(CN1CCN(CCOc2ccc3c(-c4ccccc4)cc(=O)oc3c2)CC1)Nc1c2c(nc3ccccc13)CCCC2	5.82
COc1cc(=O)oc2cc(OCCCCN3CCN(CC(=O)Nc4c5c(nc6ccccc46)CCCC5)CC3)ccc12	5.44
O=C(CN1CCN(CCCCCCOc2ccc3c(-c4ccccc4)cc(=O)oc3c2)CC1)Nc1c2c(nc3ccccc13)CCCC2	5.35
O=c1cc(-c2ccccc2)c2ccc(O)cc2o1	< 3.30
O=C(CN1CCN(CCCOc2ccc3c(-c4ccccc4)cc(=O)oc3c2)CC1)Nc1c2c(nc3ccccc13)CCCC2	5.50
O=C(CN1CCN(CCCCOc2ccc3ccc(=O)oc3c2)CC1)Nc1c2c(nc3ccccc13)CCCC2	6.51
O=C(CN1CCN(CCCOc2ccc3ccc(=O)oc3c2)CC1)Nc1c2c(nc3ccccc13)CCCC2	6.36
O=C(CN1CCN(CCCCCOc2ccc3ccc(=O)oc3c2)CC1)Nc1c2c(nc3ccccc13)CCCC2	6.67
COc1cc(=O)oc2cc(OCCCCCN3CCN(CC(=O)Nc4c5c(nc6ccccc46)CCCC5)CC3)ccc12	6.14
Cc1cc(=O)oc2cc(OCCCCCN3CCN(CC(=O)Nc4c5c(nc6ccccc46)CCCC5)CC3)ccc12	6.79
Cc1cc(=O)oc2cc(OCCN3CCN(CC(=O)Nc4c5c(nc6ccccc46)CCCC5)CC3)ccc12	6.63
O=C(CN1CCN(CCCCOc2ccc3c(-c4ccccc4)cc(=O)oc3c2)CC1)Nc1c2c(nc3ccccc13)CCCC2	5.74
COc1cc(=O)oc2cc(O)ccc12	< 3.30
O=C(CN1CCN(CCCCCOc2ccc3c(-c4ccccc4)cc(=O)oc3c2)CC1)Nc1c2c(nc3ccccc13)CCCC2	5.90
COc1cc(=O)oc2cc(OCCCCCCN3CCN(CC(=O)Nc4c5c(nc6ccccc46)CCCC5)CC3)ccc12	5.75

System: not listed separately
Test: Neurotoxicity in human SH-SY5Y cells at 1 uM after 24 hrs by MTT assay relative to control
Format: toxicity, cell-based
Conditions: not given

SMILES	Activity [%]
Cc1cc(=O)oc2cc(OCCN3CCN(CC(=O)Nc4c5c(nc6ccccc46)CCCC5)CC3)ccc12	96.6

System: not listed separately
Test: Metal chelating activity assessed as compound-Fe2+ complex formation at 25 uM by UV-vis spectrophotometric analysis
Format: functional
Conditions: not given

SMILES	Activity
Cc1cc(=O)oc2cc(OCCN3CCN(CC(=O)Nc4c5c(nc6ccccc46)CCCC5)CC3)ccc12	Active

System: not listed separately
Test: Neurotoxicity in human SH-SY5Y cells at 10 uM after 24 hrs by MTT assay relative to control
Format: toxicity, cell-based
Conditions: not given

SMILES	Activity [%]
Cc1cc(=O)oc2cc(OCCN3CCN(CC(=O)Nc4c5c(nc6ccccc46)CCCC5)CC3)ccc12	104.3

Target: Amyloid-beta precursor protein (Homo sapiens) (UniProt P05067)
Sequence (P05067 whole entry): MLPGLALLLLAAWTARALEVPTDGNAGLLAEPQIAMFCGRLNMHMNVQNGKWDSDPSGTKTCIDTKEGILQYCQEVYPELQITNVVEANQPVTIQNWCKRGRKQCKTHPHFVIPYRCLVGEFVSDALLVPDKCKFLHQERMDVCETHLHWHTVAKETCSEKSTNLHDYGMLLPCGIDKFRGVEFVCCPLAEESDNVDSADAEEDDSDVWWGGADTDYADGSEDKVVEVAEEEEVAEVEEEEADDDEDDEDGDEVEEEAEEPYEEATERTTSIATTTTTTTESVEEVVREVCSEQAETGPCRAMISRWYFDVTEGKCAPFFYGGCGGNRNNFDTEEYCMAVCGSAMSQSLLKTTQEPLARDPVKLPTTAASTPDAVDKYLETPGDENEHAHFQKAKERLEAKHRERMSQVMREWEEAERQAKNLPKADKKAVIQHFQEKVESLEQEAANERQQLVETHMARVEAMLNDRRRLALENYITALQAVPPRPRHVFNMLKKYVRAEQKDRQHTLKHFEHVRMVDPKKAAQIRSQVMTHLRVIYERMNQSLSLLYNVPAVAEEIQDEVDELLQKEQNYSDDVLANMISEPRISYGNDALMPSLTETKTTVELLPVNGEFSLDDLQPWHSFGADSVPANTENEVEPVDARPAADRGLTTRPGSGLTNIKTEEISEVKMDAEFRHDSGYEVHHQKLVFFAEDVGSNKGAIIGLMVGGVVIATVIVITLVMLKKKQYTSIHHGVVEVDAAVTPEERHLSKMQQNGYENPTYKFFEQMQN
Conditions: at 20 µM

SMILES	inhibition [%]
Cc1cc(=O)oc2cc(O)ccc12 [HYMECROMONE]	21.5
COc1cc(=O)oc2cc(OCCCN3CCN(CC(=O)Nc4c5c(nc6ccccc46)CCCC5)CC3)ccc12	34.9
Cc1cc(=O)oc2cc(OCCCN3CCN(CC(=O)Nc4c5c(nc6ccccc46)CCCC5)CC3)ccc12	67.5
O=C(CN1CCN(CCCCCCOc2ccc3ccc(=O)oc3c2)CC1)Nc1c2c(nc3ccccc13)CCCC2	57.1
O=C(CN1CCNCC1)Nc1c2c(nc3ccccc13)CCCC2	30.3
O=C(CN1CCN(CCOc2ccc3ccc(=O)oc3c2)CC1)Nc1c2c(nc3ccccc13)CCCC2	59
Cc1cc(=O)oc2cc(OCCCCCCN3CCN(CC(=O)Nc4c5c(nc6ccccc46)CCCC5)CC3)ccc12	57.6
COc1cc(=O)oc2cc(OCCN3CCN(CC(=O)Nc4c5c(nc6ccccc46)CCCC5)CC3)ccc12	21.6
Cc1cc(=O)oc2cc(OCCCCN3CCN(CC(=O)Nc4c5c(nc6ccccc46)CCCC5)CC3)ccc12	52.7
O=C(CN1CCN(CCOc2ccc3c(-c4ccccc4)cc(=O)oc3c2)CC1)Nc1c2c(nc3ccccc13)CCCC2	27.2
COc1cc(=O)oc2cc(OCCCCN3CCN(CC(=O)Nc4c5c(nc6ccccc46)CCCC5)CC3)ccc12	22.1
O=C(CN1CCN(CCCCCCOc2ccc3c(-c4ccccc4)cc(=O)oc3c2)CC1)Nc1c2c(nc3ccccc13)CCCC2	27.5
O=c1cc(-c2ccccc2)c2ccc(O)cc2o1	27.1
O=C(CN1CCN(CCCOc2ccc3c(-c4ccccc4)cc(=O)oc3c2)CC1)Nc1c2c(nc3ccccc13)CCCC2	28.2
O=c1ccc2ccc(O)cc2o1	30.5
O=C(CN1CCN(CCCCOc2ccc3ccc(=O)oc3c2)CC1)Nc1c2c(nc3ccccc13)CCCC2	57
O=C(CN1CCN(CCCOc2ccc3ccc(=O)oc3c2)CC1)Nc1c2c(nc3ccccc13)CCCC2	55.1
O=C(CN1CCN(CCCCCOc2ccc3ccc(=O)oc3c2)CC1)Nc1c2c(nc3ccccc13)CCCC2	52.7
COc1cc(=O)oc2cc(OCCCCCN3CCN(CC(=O)Nc4c5c(nc6ccccc46)CCCC5)CC3)ccc12	30
Cc1cc(=O)oc2cc(OCCCCCN3CCN(CC(=O)Nc4c5c(nc6ccccc46)CCCC5)CC3)ccc12	59.8
COc1cc(/C=C/C(=O)CC(=O)/C=C/c2ccc(O)c(OC)c2)ccc1O	42.4
O=C(CN1CCN(CCCCOc2ccc3c(-c4ccccc4)cc(=O)oc3c2)CC1)Nc1c2c(nc3ccccc13)CCCC2	28.6
COc1cc(=O)oc2cc(O)ccc12	22.4
O=C(CN1CCN(CCCCCOc2ccc3c(-c4ccccc4)cc(=O)oc3c2)CC1)Nc1c2c(nc3ccccc13)CCCC2	29.5
COc1cc(=O)oc2cc(OCCCCCCN3CCN(CC(=O)Nc4c5c(nc6ccccc46)CCCC5)CC3)ccc12	31.9

Target: T1, Acetylcholinesterase (Electrophorus electricus, UniProt O42275)
T1 sequence (O42275 whole entry): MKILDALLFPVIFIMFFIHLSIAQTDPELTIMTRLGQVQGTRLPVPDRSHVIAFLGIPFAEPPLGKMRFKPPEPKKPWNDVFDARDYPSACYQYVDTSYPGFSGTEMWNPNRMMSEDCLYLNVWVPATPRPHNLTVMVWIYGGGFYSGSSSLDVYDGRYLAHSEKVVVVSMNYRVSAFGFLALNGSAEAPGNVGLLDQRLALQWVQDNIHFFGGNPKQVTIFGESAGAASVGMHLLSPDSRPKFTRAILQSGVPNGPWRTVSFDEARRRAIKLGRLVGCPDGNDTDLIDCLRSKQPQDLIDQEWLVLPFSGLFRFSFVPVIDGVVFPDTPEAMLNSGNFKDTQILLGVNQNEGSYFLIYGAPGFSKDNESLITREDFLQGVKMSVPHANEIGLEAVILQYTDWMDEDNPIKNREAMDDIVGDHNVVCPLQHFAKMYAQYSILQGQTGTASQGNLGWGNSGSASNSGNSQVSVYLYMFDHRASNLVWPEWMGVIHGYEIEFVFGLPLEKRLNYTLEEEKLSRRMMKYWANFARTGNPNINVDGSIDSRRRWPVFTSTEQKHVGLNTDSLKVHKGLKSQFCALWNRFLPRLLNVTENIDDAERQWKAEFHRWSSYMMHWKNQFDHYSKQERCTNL
Conditions: not given

SMILES	pIC50
Cc1cc(=O)oc2cc(O)ccc12 [HYMECROMONE]	3.78
COc1cc(=O)oc2cc(OCCCN3CCN(CC(=O)Nc4c5c(nc6ccccc46)CCCC5)CC3)ccc12	6.78
Cc1cc(=O)oc2cc(OCCCN3CCN(CC(=O)Nc4c5c(nc6ccccc46)CCCC5)CC3)ccc12	6.89
O=C(CN1CCN(CCCCCCOc2ccc3ccc(=O)oc3c2)CC1)Nc1c2c(nc3ccccc13)CCCC2	6.19
O=C(CN1CCNCC1)Nc1c2c(nc3ccccc13)CCCC2	3.84
O=C(CN1CCN(CCOc2ccc3ccc(=O)oc3c2)CC1)Nc1c2c(nc3ccccc13)CCCC2	6.82
Cc1cc(=O)oc2cc(OCCCCCCN3CCN(CC(=O)Nc4c5c(nc6ccccc46)CCCC5)CC3)ccc12	6.40
COc1cc(=O)oc2cc(OCCN3CCN(CC(=O)Nc4c5c(nc6ccccc46)CCCC5)CC3)ccc12	6.82
Cc1cc(=O)oc2cc(OCCCCN3CCN(CC(=O)Nc4c5c(nc6ccccc46)CCCC5)CC3)ccc12	6.73
O=C(CN1CCN(CCOc2ccc3c(-c4ccccc4)cc(=O)oc3c2)CC1)Nc1c2c(nc3ccccc13)CCCC2	6.43
COc1cc(=O)oc2cc(OCCCCN3CCN(CC(=O)Nc4c5c(nc6ccccc46)CCCC5)CC3)ccc12	6.63
O=C(CN1CCN(CCCCCCOc2ccc3c(-c4ccccc4)cc(=O)oc3c2)CC1)Nc1c2c(nc3ccccc13)CCCC2	5.63
O=c1cc(-c2ccccc2)c2ccc(O)cc2o1	3.59
O=C(CN1CCN(CCCOc2ccc3c(-c4ccccc4)cc(=O)oc3c2)CC1)Nc1c2c(nc3ccccc13)CCCC2	6.05
O=C(CN1CCN(CCCCOc2ccc3ccc(=O)oc3c2)CC1)Nc1c2c(nc3ccccc13)CCCC2	6.77
O=C(CN1CCN(CCCOc2ccc3ccc(=O)oc3c2)CC1)Nc1c2c(nc3ccccc13)CCCC2	6.88
O=C(CN1CCN(CCCCCOc2ccc3ccc(=O)oc3c2)CC1)Nc1c2c(nc3ccccc13)CCCC2	6.51
COc1cc(=O)oc2cc(OCCCCCN3CCN(CC(=O)Nc4c5c(nc6ccccc46)CCCC5)CC3)ccc12	6.45
Cc1cc(=O)oc2cc(OCCCCCN3CCN(CC(=O)Nc4c5c(nc6ccccc46)CCCC5)CC3)ccc12	6.48
Cc1cc(=O)oc2cc(OCCN3CCN(CC(=O)Nc4c5c(nc6ccccc46)CCCC5)CC3)ccc12	7.04
O=C(CN1CCN(CCCCOc2ccc3c(-c4ccccc4)cc(=O)oc3c2)CC1)Nc1c2c(nc3ccccc13)CCCC2	5.95
COc1cc(=O)oc2cc(O)ccc12	3.68
O=C(CN1CCN(CCCCCOc2ccc3c(-c4ccccc4)cc(=O)oc3c2)CC1)Nc1c2c(nc3ccccc13)CCCC2	5.80
COc1cc(=O)oc2cc(OCCCCCCN3CCN(CC(=O)Nc4c5c(nc6ccccc46)CCCC5)CC3)ccc12	6.00

System: not listed separately
Test: Neurotoxicity in human SH-SY5Y cells at 5 uM after 24 hrs by MTT assay relative to control
Format: toxicity, cell-based
Conditions: read-out: Activity

SMILES	viability at 24 h, 5 µM [%]
Cc1cc(=O)oc2cc(OCCN3CCN(CC(=O)Nc4c5c(nc6ccccc46)CCCC5)CC3)ccc12	94.7

System: not listed separately
Test: Neurotoxicity in human SH-SY5Y cells at 25 uM after 24 hrs by MTT assay relative to control
Format: toxicity, cell-based
Conditions: not given

SMILES	Activity [%]
Cc1cc(=O)oc2cc(OCCN3CCN(CC(=O)Nc4c5c(nc6ccccc46)CCCC5)CC3)ccc12	93.6

Target: T1, Acetylcholinesterase
Test: Competitive inhibition of electric eel AChE using acetylthiocholine as substrate by Lineweaver-Burk plot analysis
Conditions: not given

SMILES	pKi
Cc1cc(=O)oc2cc(OCCN3CCN(CC(=O)Nc4c5c(nc6ccccc46)CCCC5)CC3)ccc12	7.09

— ChEMBL document CHEMBL2390867, “Design, synthesis and evaluation of novel tacrine-coumarin hybrids as multifunctional cholinesterase inhibitors against Alzheimer's disease” (Eur J Med Chem, 2013)
